Literature values, collected in patent publication US6599496B2, “Endoscopy tissue stain” (Chek-Med Systems, Inc., priority 1999, dated 2003).

Tested on: colon
Details: Hammond et al.

SMILES: CC1(C)C(/C=C/C=C/C=C/C=C2\N(CCCCS(=O)(=O)O)c3ccc4ccccc4c3C2(C)C)=[N+](CCCCS(=O)(=O)[O-])c2ccc3ccccc3c21 [Indocyanine green]
- permanence of the marking of lesions of the colon: does not have long term permanence
